The values below come from patent publication US20090131480A1 (priority 2005, published 2009).

Series [1] relates to organotypic hippocampal slice cultures. Description: AMPA toxicity in organotypic hippocampal slice cultures (PI fluorescence in CA1). Type of series: cell-based, Wistar rat. The procedure:
(§1) Medium was changed every 3-4 days.
(§2) Neurotoxicity protocols are outlined below.
(1) AMPA: Cultures were transferred to fresh SFM (+PI) containing 30 μM S-AMPA for 3 hours under normal culture conditions. At the end of this period, cultures were returned to fresh SFM for 21 hours prior to determination of neuronal death by PI imaging. GYKI52466 (30 μM) was used as a positive, neuroprotective control.

Series [2] has the same test system. Description: Oxygen-glucose deprivation (OGD) in organotypic hippocampal slice cultures (PI fluorescence in CA1). Type of series: cell-based, Wistar rat. How it is done:
as §1, §2
(2) Oxygen-Glucose Deprivation (OGD): Experimental ischaemia was performed by exposing cultures to oxygen-glucose deprivation (OGD) as described previously. […] OGD was induced by transferring cultures to glucose-free SFM (+PI) which had been saturated with 95% N2/5% CO2. Culture plates (without lids) were then sealed into an airtight chamber in which the atmosphere was saturated with 95% N2/5% CO2 by continuously blowing through gas at 10 L/min for ten minutes before being sealed and placed in the incubator for 50 mins (total time of OGD was therefore 60 mins). At the end of the period of OGD cultures were returned to normoxic SFM containing PI and placed back in the incubator for 23 hours.

For series [3], the system named is dopamine turnover in mice striatum. As to the kind of experiment: Dopamine, DOPAC and HVA content / dopamine turnover in mice striatum (HPLC with electrochemical detection). Type of series: in vivo, C57BL/6 mice. The following applies: for dopamine turnover in mice: monotherapy vs combination, FIG. 3.
Procedure: C57BL/6 mice (SLC, Shizuoka, Japan) were used for the experiment. […] The two drugs were orally administered by gavage 1 hour before sampling. At the time the mice were sacrificed, both striata were rapidly dissected and were frozen by liquid nitrogen. The samples were subsequently sonicated in 0.5 ml of chilled 0.5 M perchloric acid containing 0.1 M EDTA, and centrifuged at 13000 rpm for 15 min at 4° C. Then monoamine levels were measured by HPLC with electrochemical detection. Supernatant aliquots of 201 were separated over an Eicompak SC5-ODS column (3×150 mm; Eicom, Japan) with mobile phase of 17% methanol, 83% 0.1M acetate/citrate buffer (pH 3.5) containing 190 mg/ml sodium 1-octanesulfonate and 50 mg/ml EDTA, and a flow rate of 0.65 ml/min. Peaks of dopamine, DOPAC, HVA, 5-HT, and 5-HIAA were quantified by area integration with PowerChrom (eDAQ, Australia), and concentrations were expressed as nanograms per milligram of striatal tissue.
The conditions of series [4]: C57BL/6, mouse, in vivo, po, 1 h.
Series [5] deals with organotypic hippocampal slice cultures. As to the kind of experiment: Hypoxia-induced neurodegeneration in organotypic hippocampal slice cultures (PI fluorescence in CA1). In kind it is cell-based, Wistar rat. The procedure: as §1, §2
(3) Hypoxia: Hypoxia was performed by exposing cultures to oxygen-deprivation as described previously. Pringle et al, Brain Research, 755:36-46 (1997); Pringle et al, Stroke, 27:2124-2130 (1996). Hypoxia was induced by transferring cultures to SFM (+PI) which had been saturated with 95% N2/5% CO2. Culture plates (without lids) were then sealed into an airtight chamber in which the atmosphere was saturated with 95% N2/5% CO2 by continuously blowing through gas at 10 L/min for ten minutes before being sealed and placed in the incubator for 170 mins (total time of hypoxia was therefore 180 mins). At the end of the period of hypoxia, cultures were returned to normoxic SFM (+PI) and placed back in the incubator for 21 hours. The freeradical scavenger MnTBAP (100 μM) was used as a positive neuroprotective control.

Series [6] has the same test system. Description: Duroquinone free radical-mediated toxicity in organotypic hippocampal slice cultures (PI fluorescence in CA1). The following applies: 100 μM; 100 μM duroquinone 3 hours; duroquinone alone 51.0±3.4%. Type of series: cell-based, Wistar rat. The procedure:
as §1, §2
(5) Free radical-mediated toxicity (Duroquinone): Duroquinone produces superoxide-mediated neurotoxicity producing a selective neuronal lesion in the CA1 region. Wilde et al, J. Neurochem., 69(2):883-886 (1997). Cultures were transferred to fresh SFM (+PI) containing 100 μM duroquinone for 3 hours under normal culture conditions. At the end of this period, cultures were returned to fresh SFM for 21 hours prior to determination of neuronal death by PI imaging. MnTBAP (100 μM) was used as a positive neuroprotective control.

Where only a bound is given, the exact number is not on record here.

On to `CC1=NN=C(c2ccc(N)cc2)c2cc3c(cc2C1)OCO3` [GYKI52466], for which the “neuronal damage, % of CA1 with PI fluorescence” value (from here on “neuronal damage, % of CA1”) in series [1] (30 μM test compound, 30 μM AMPA 3 hours, AMPA alone 65.1±1.7%) turned out to be 14.3±2.3%; in series [1] (30 μM, pre-incubation series, AMPA alone 46.5±5.0%), 21.7±2.7%; in series [2] (30 μM, 60 minutes OGD, OGD alone 50.6±5.2%) it was 36.9±3.6%.
As for `COc1cc2c(cc1OC)C(=O)C(CC1CCN(Cc3ccccc3)CC1)C2` (stereo not shown) [donepezil, 1-benzyl-4-((5,6-dimethoxy-1-indanon)-2-yl)methylpiperidine], the “content of dopamine in striatum” value in series [3] (donepezil orally, 1 hour before sampling) is “reduced the content of dopamine significantly”. For the same molecule, in series [3] (donepezil orally, FIG. 2), the DPAC/DA result is recorded as “increased significantly” and the HVA/DA result is reported as “increased significantly”. The “dopamine turnover in mice” value in series [3] is reported as “modulated dopamine turnover but neither reached significance”. The “dose at which peripheral side effect was shown” value in series [4] is recorded as ≥ 7.5 mg/kg.
Regarding `O=C(O)c1ccc(/C2=C3\C=CC(=N3)/C(c3ccc(C(=O)O)cc3)=c3/cc/c4[n]3[Mn]([Cl])[n]3c2ccc3/C(c2ccc(C(=O)O)cc2)=C2/C=CC(=N2)\C=4c2ccc(C(=O)O)cc2)cc1` [MnTBAP], the “neuronal damage, % of CA1” value in series [2] (100 μM, 60 minutes OGD, OGD alone 50.6±5.2%) came to 0.1±0.0%; in series [2] (100 μM, second series, OGD alone 44.8±[…]) it was 0.6±0.2%; in series [5] (100 μM, 3 hours hypoxia, hypoxia alone 45.1±3.5%), 0.2±0.1%; in series [5] (100 μM, repeated experiment, hypoxia alone 36.9±[…]), 0.8±0.4%; in series [5] (second set, hypoxia alone 36.4±[…]), 0.0±0.0%; in series [6] it was 0.1±0.0%.
On to `N#Cc1ccccc1-c1cc(-c2ccccn2)cn(-c2ccccc2)c1=O` [2-(2-oxo-1-phenyl-5-pyridin-2-yl-1,2-dihydropyridin-3-yl)benzonitrile], for which the “content of HVA in striatum” value in series [3] (1 mg/kg, orally, 1 hour before sampling, FIG. 1) is on record as “elevated”. In series [3], the “dopamine turnover in mice” value was “modulated dopamine turnover but neither reached significance”. Besides, in series [2] (any other concentration assessed (up to 3 μM), OGD alone 50.6±5.2%), the “effect on OGD-induced neurotoxicity” value is reported as “no significant effect”. Besides, the “EC50 in OGD model” value in series [2] (six-point concentration-response curve) is “could not be established”. Further, the “neuronal damage, % of CA1” value in series [5] (5 μM, hypoxia alone 45.1±3.5%) was found to be 3.9±1.8%.
